Assay in all cases: cells
One assay concerns A549. As to conditions: Homo sapiens, A549, 96 h.
The next assay deals with HCT-116. As to conditions: Homo sapiens, HCT-116, 96 h.
A further assay relates to NCI-H2228. As to conditions: Homo sapiens, NCI-H2228, 96 h.
Another assay relates to KARPAS-299. Particulars: Homo sapiens, KARPAS-299, 96 h.

The IC50 is the concentration that inhibits the measured activity by half.

Description for A549: Antiproliferative activity against ALK-negative human A549 cells assessed as inhibition of cell growth incubated for 96 hrs by MTT assay
Description for HCT-116: Antiproliferative activity against ALK-negative human HCT-116 cells assessed as inhibition of cell growth incubated for 96 hrs by MTT assay
Description for KARPAS-299: Antiproliferative activity against NPM-ALK positive human KARPAS-299 cells assessed as inhibition of cell growth incubated for 96 hrs by CCK-8 assay
Description for NCI-H2228: Antiproliferative activity against EML4-ALK positive human NCI-H2228 cells assessed as inhibition of cell growth incubated for 96 hrs by MTT assay

With `Cc1cc(Nc2ncc(Cl)c(Nc3ccccc3S(=O)(=O)C(C)C)n2)c(OC(C)C)cc1C1CCN(C(=S)SCCN(C)C)CC1`, the IC50 with A549 was above 10 µM; in the assay with HCT-116 it was 1.07 µM; in the assay on NCI-H2228, 0.18 µM; in the assay on KARPAS-299, 0.11 µM.

Regarding `Cc1cc(Nc2ncc(Cl)c(Nc3ccccc3S(=O)(=O)C(C)C)n2)c(OC(C)C)cc1C1CCN(C(=S)SCC(=O)NC2CCCC2)CC1`, the IC50 was above 10 µM with A549, 3.52 µM with HCT-116, 0.41 µM in the assay on NCI-H2228 and 0.13 µM in the assay on KARPAS-299.

Take `CCN(CC)C(=S)CSC(=O)N1CCC(c2cc(OC(C)C)c(Nc3ncc(Cl)c(Nc4ccccc4S(=O)(=O)C(C)C)n3)cc2C)CC1`: the IC50 was above 10 µM in the assay on A549, 2.51 µM in the assay on HCT-116, 1.23 µM in the assay with NCI-H2228 and 0.44 µM with KARPAS-299.

Turning to `Cc1cc(Nc2ncc(Cl)c(Nc3ccccc3S(=O)(=O)C(C)C)n2)c(OC(C)C)cc1C1CCN(C(=S)SCC(=O)NC(C)C)CC1`, the IC50 with A549 was above 10 µM; in the assay with HCT-116, above 10 µM; in the assay on NCI-H2228, 0.36 µM; in the assay with KARPAS-299, 0.14 µM.

For `Cc1cc(Nc2ncc(Cl)c(Nc3ccccc3S(=O)(=O)C(C)C)n2)c(OC(C)C)cc1C1CCN(C(=S)SCC(=O)N(C)C)CC1`, the IC50 in the assay with A549 is above 10 µM; in the assay on HCT-116 it was 5.93 µM; with NCI-H2228 it was 1.54 µM; with KARPAS-299 it was 0.25 µM.

As for `Cc1cc(Nc2ncc(Cl)c(Nc3ccccc3S(=O)(=O)C(C)C)n2)c(OC(C)C)cc1C1CCN(C(=S)SCC(=O)N2CCSCC2)CC1`, the IC50 with A549 was above 10 µM; in the assay on HCT-116, 3.86 µM; with NCI-H2228, 0.63 µM; in the assay with KARPAS-299 it was 0.08 µM.

Regarding `Cc1cc(Nc2ncc(Cl)c(Nc3ccccc3S(=O)(=O)C(C)C)n2)c(OC(C)C)cc1C1CCN(C(=O)SCC(=S)N2CCOCC2)CC1`, the IC50 was above 10 µM in the assay with A549, 4.95 µM in the assay with HCT-116, 0.65 µM in the assay on NCI-H2228 and 0.12 µM with KARPAS-299.

For `Cc1cc(Nc2ncc(Cl)c(Nc3ccccc3S(=O)(=O)C(C)C)n2)c(OC(C)C)cc1C1CCN(C(=O)SCC(=S)N2CCCC2)CC1`, the IC50 was above 10 µM with A549, 3.17 µM with HCT-116, 1.21 µM with NCI-H2228 and 0.86 µM with KARPAS-299.

In the case of `Cc1cc(Nc2ncc(Cl)c(Nc3ccccc3S(=O)(=O)C(C)C)n2)c(OC(C)C)cc1C1CCN(C(=O)SCC(=S)N2CCN(CCO)CC2)CC1`, the IC50 in the assay on A549 is above 10 µM; in the assay with HCT-116 it was 1.53 µM; with NCI-H2228 it was 0.12 µM; with KARPAS-299 it was 0.08 µM.

With `Cc1cc(Nc2ncc(Cl)c(Nc3ccccc3S(=O)(=O)C(C)C)n2)c(OC(C)C)cc1C1CCN(C(=O)SCC(=S)N2CCCCC2)CC1`, the half-maximal inhibitory concentration (IC50) is above 10 µM in the assay with A549, 3.36 µM in the assay with HCT-116, 0.38 µM with NCI-H2228 and 0.15 µM with KARPAS-299.

On to `Cc1cc(Nc2ncc(Cl)c(Nc3ccccc3S(=O)(=O)C(C)C)n2)c(OC(C)C)cc1C1CCN(C(=S)SCC(=O)NC2CCC2)CC1`, for which the IC50 in the assay on A549 is above 10 µM; with HCT-116, 7.03 µM; with NCI-H2228, 0.45 µM; in the assay on KARPAS-299, 0.14 µM.

On to `Cc1cc(Nc2ncc(Cl)c(Nc3ccccc3S(=O)(=O)C(C)C)n2)c(OC(C)C)cc1C1CCN(C(=S)SCC(=O)NC2CCCCC2)CC1`, for which the IC50 in the assay with A549 is above 10 µM; with HCT-116, 7.83 µM; with NCI-H2228 it was 2.66 µM; in the assay on KARPAS-299 it was 0.59 µM.

Consider `Cc1cc(Nc2ncc(Cl)c(Nc3ccccc3S(=O)(=O)C(C)C)n2)c(OC(C)C)cc1C1CCN(C(=S)SCC(=O)N2CCCCC2)CC1`, for which the IC50 in the assay with A549 was above 10 µM; in the assay with HCT-116 it was 3.33 µM; with NCI-H2228, 1.32 µM; in the assay on KARPAS-299 it was 0.15 µM.

As to `Cc1cc(Nc2ncc(Cl)c(Nc3ccccc3S(=O)(=O)C(C)C)n2)c(OC(C)C)cc1C1CCN(C(=S)SCCN2CCOCC2)CC1`, the IC50 with A549 is above 10 µM; in the assay with HCT-116, 3.78 µM; in the assay on NCI-H2228 it was 0.17 µM; with KARPAS-299 it was 0.32 µM.

For the compound `Cc1cc(Nc2ncc(Cl)c(Nc3ccccc3S(=O)(=O)C(C)C)n2)c(OC(C)C)cc1C1CCNCC1` [CERITINIB], the IC50 in the assay on HCT-116 turned out to be 1.07 µM; in the assay with NCI-H2228 it was 0.03 µM.

For the origin of these results see ChEMBL document CHEMBL5143704, “Discovery of 2,4-diarylaminopyrimidine derivatives bearing dithiocarbamate moiety as novel ALK inhibitors” (Bioorg Med Chem, 2022).
